Active and inactive are the calls of the source. The rule behind the calls is not given here.
What was measured:
[1] = system: SH-SY5Y; assay: Induction of glutathione in human SH-SY5Y cells at 100 uM incubated for 24 hrs by GSH/GSSG Glo assay; type: functional
[2] = Toxicity against human SH-SY5Y cells at 100 uM incubated for 24 hrs; type: cell-based
[3] = (§1) Neuroprotection against 25 uM 6-hydroxydopamine-induced neurotoxicity in human SH-SY5Y cells assessed as cell viability at 100 uM pre-incubated for 24 hrs before 6-hydroxydopamine challenge; type: functional
[4] = Neuroprotection against 50 uM 6-hydroxydopamine-induced neurotoxicity in human SH-SY5Y cells assessed as cell viability at 100 uM pre-incubated for 24 hrs before 6-hydroxydopamine challenge; type: functional
[5] = system: SH-SY5Y; assay: as §1; type: functional

Row | Structure (SMILES) | Activity [1] | Activity [2] | Activity [3] [%] | Activity [4] [%] | Activity [5]
1 | COc1ccc(-c2cc(=S)ss2)cc1 | inactive | – | – | – | –
2 | S=c1sscc1-c1ccccc1 | Active | – | – | – | –
3 | FC(F)(F)Cc1cssc1=S | Active | – | – | – | –
4 | COc1ccc(-c2cssc2=S)cc1 | Active | – | – | – | –
5 | S=c1ccss1 [DITHIOLETHIONE] | 215% | Non-toxic | 52 | 47 | –
6 | CCc1cc(=S)ss1 | Active | – | – | – | –
7 | Cc1ssc(=S)c1Cl | 175% | Non-toxic | 52 | 33 | –
8 | S=c1cc(C2CC2)ss1 | Active | – | – | – | –
9 | S=c1ssc2c1CCCC2 | 98% | – | – | – | –
10 | S=c1ssc2c1CCC2 | 183% | Non-toxic | 41 | 22 | –
11 | S=c1sscc1-c1ccc(Cl)cc1 | Active | – | – | – | –
12 | Oc1ccc(-c2cc(=S)ss2)cc1 | inactive | – | – | – | –
13 | S=c1cc(-c2ccc(Cl)cc2)ss1 | inactive | – | – | – | inactive

From ChEMBL document CHEMBL3352442, “Synthesis and structure-activity relationships study of dithiolethiones as inducers of glutathione in the SH-SY5Y neuroblastoma cell line” (Bioorg Med Chem Lett, 2014)
